The data set has as its system THP-1 cells. Description: Cytotoxicity of TCEP digestion media (LIVE/DEAD stain, flow cytometry). The class given is cell-based. To be noted: TCEP 0.1 mM to 100 mM, 10 minutes. As for the experimental part: Cell death was analyzed by flow cytometry after staining using the LIVE/DEAD fixable Violet Dead Cell Stain. Multiple comparisons among groups were determined using one-way ANOVA followed by a post-hoc test. P-value: *p<0.05, **p<0.01.
The ability to induce on-demand digestion of the MNs using a reducing agent (Tris (2-carboxyethil) phosphine, TCEP) was also characterized. […] THP-1 cells were incubated with different concentrations of digestion media (TCEP solution in supplemented media), ranging from 0.1 mM to 100 mM, for 10 minutes. Thereafter, digestion media was removed, and cells were stained using the LIVE/DEAD fixable Violet Dead Cell Stain Kit (ThermoFisher Scientific, USA) following the manufacturer's guidelines. Dead cells were analyzed by flow cytometry using a BD LSRFortessa™ flow cytometer.

On to `O=C(O)CCP(CCC(=O)O)CCC(=O)O` [TCEP, tris(2-carboxyethyl)phosphine], for which the cell viability entry is “did not affect cell viability”.
